Measured values from patent US8936807B2, “Use of the cathelicidin LL-37 and derivatives thereof for wound healing” (Lipopeptide AB, priority 2003, dated 2015).

System: HaCat cells
Assay: Proliferation of HaCat cells assessed by 3H-Thymidine incorporation
Assay type: cell-based, human
Details: 10% serum, 96 h; for Increased Proliferation (%): vs control 0 μg/ml
Experimental: HaCat cells were cultured in medium (DMEM, +10% FCS and PEST). HaCaT cells were plated in 96 well plates (Falcon, USA) at the concentration of 2000 cells per well. Cells were plated at −48 hours and stimulated with different concen-trations of synthetic LL-37, LL-36, and LL-38 peptide by hour 0 and after 48 hours.
The testing was done in one experiment with 6 wells in each condition. […] of ^3H-Thymidine (THYMIDINE, [METHYL-^3H]-740.0 GBq/mmol (20.00 Ci/mmol) 1.0 ml of Ethanol:Water, 7:3, Perkin Elmer Life Sciences Inc. Boston Mass., USA) was added to each well and incubated for 12-17 hours. Proliferation was evaluated by ^3H-Thymidine incorporation a liquid scintilator (MicroBeta Perkin Elmer Life Sciences Inc. Boston Mass., USA) after 72 and 96 hours.

LLGDFFRKSKEKIGKEFKRIVQRIKDFLRNLVPRTES [LL-37]
Counts Per Minute (Mean) (LL-37 1.00 μg/ml): 75445 Counts Per Minute | Increased Proliferation (%) (LL-37 1.00 μg/ml): 43% | Counts Per Minute (Mean) (LL-37 5.00 μg/ml): 102353 Counts Per Minute | Increased Proliferation (%) (LL-37 5.00 μg/ml): 94% | Counts Per Minute (Mean) (LL-37 10.00 μg/ml): 73548 Counts Per Minute | Increased Proliferation (%) (LL-37 10.00 μg/ml): 39% | Counts Per Minute (Mean) (LL-37 25.00 μg/ml): 76510 Counts Per Minute | Increased Proliferation (%) (LL-37 25.00 μg/ml): 45% | Counts Per Minute (Mean) (LL-37 50.00 μg/ml): 65119 Counts Per Minute | Increased Proliferation (%) (LL-37 50.00 μg/ml): 23%
